Active and inactive are the calls of the source. How the calls were made is not given here.
Test: mitochondrial fusion inhibitors, confirmation, cell-based, chemical genetic, wild-type and mutant (AID 1361)
Conditions: Cell-based mitochondrial fusion phenotype, imaging
[1] = mutant cells, measured here: mutant cell line IC50

Row | Structure (SMILES) | IC50 (WT cells) | IC50 [1]
1 | COc1cc(/C=N/NC(=O)CCc2ccccc2)ccc1O | > 25 µM (inactive) | > 25 µM
2 | Cc1cccc(-n2c(CCc3ccccc3)nnc2SCC(=O)c2ccccc2)c1 | 20.6 µM | > 25 µM
3 | COc1ccc(NC(=S)Nc2ccc(OCc3ccccc3)cc2)c(OC)c1 | 17.4 µM | 24.9 µM
4 | CC(C)(O)[C@H]1O[C@H]2CC[C@@]3(C)[C@@](O)(CC[C@H]4Cc5c([nH]c6ccccc56)[C@@]43C)C2=CC1=O | 11.2 µM | > 25 µM
5 | CC(c1ccccc1)N(CC(=O)NC1CCCCC1)S(=O)(=O)c1cccc(C(F)(F)F)c1 (centres undefined) | 12.4 µM | > 25 µM
6 | CCc1nnc(NC(=O)Nc2ccccc2OC)s1 | > 25 µM (inactive) | > 25 µM
7 | CCc1ccccc1N(C1=NCCCS1)S(=O)(=O)c1ccc(C(C)(C)C)cc1 | 7.58 µM | > 25 µM
8 | CCC(C)c1ccc(NC(=O)COc2c(F)c(F)c(C(F)(F)F)c(F)c2F)cc1 (centres undefined) | 8.03 µM | > 25 µM
9 | CCn1c(C(=O)N2CCc3ccccc3C2)cc2oc3ccccc3c21 | 8.84 µM | > 25 µM
10 | Cc1ccc(C(=O)Nc2cc(Cl)ccc2N2CCCCC2)s1 | 7.64 µM | > 25 µM
11 | CCN(CC)P(=O)(Nc1ccc(C)cc1Br)c1ccc(N(C)C)cc1NC(=O)c1ccco1 (centres undefined) | 12.8 µM | > 25 µM
12 | Cc1sc(NC(=O)CSc2nnnn2C2CCCCC2)c(C#N)c1C | > 25 µM (inactive) | > 25 µM
13 | O=C(Nn1c(C2CCCCC2)nc2ccccc2c1=O)c1ccc(Cl)c([N+](=O)[O-])c1 | 14.8 µM | > 25 µM
14 | Cc1cccc(N(C)C(=S)Oc2ccc3ccccc3c2)c1 | 8.79 µM | > 25 µM
15 | COC(=O)C1CSc2[nH]c(=O)sc2C1c1ccc(OC)c(OC)c1 (centres undefined) | > 25 µM (inactive) | > 25 µM
16 | CCN(c1ccc2c(c1)OCO2)S(=O)(=O)c1cc(Br)cc2c1N(C(=O)C1CC1)CC2 | 13.3 µM | > 25 µM
17 | CCC(=O)Nc1ccc(-c2nnc(SCc3ccc(C(=O)Nc4nccs4)cc3)n2CC)cc1 | > 25 µM (inactive) | > 25 µM
18 | Cc1cc(C)c(OCC(=O)Nc2nnc(-c3ccco3)o2)c(C)c1 | > 25 µM (inactive) | > 25 µM
19 | COc1ccc(C2C3=C(CC(C)(C)CC3=O)Oc3ncn(Cc4ccccc4)c(=N)c32)cc1 (centres undefined) | 12.6 µM | > 25 µM
20 | CCc1ccc(OCC2c3cc(OC)c(OC)cc3CCN2C(=S)NC)cc1 (centres undefined) | > 25 µM (inactive) | > 25 µM
21 | Cc1cc(NC(=S)N(Cc2ccc(Cl)cc2)Cc2ccc(C(=O)O)cc2)ccc1Cl | 17.6 µM | > 25 µM

Row | Structure (SMILES) | IC50 (WT cells) | IC50 [1]
22 | O=C(NCc1ccccc1)c1ccc(-c2ccccc2C(F)(F)F)o1 | > 25 µM (inactive) | > 25 µM
23 | CCC(=O)Nc1ccc(N2CCN(CC)CC2)c(Cl)c1 | > 25 µM (inactive) | > 25 µM
24 | CCOc1ccc(Oc2c(/C=N/NC(=O)COc3ccccc3OC)c(C)nn2-c2ccccc2)cc1 | 14.8 µM | > 25 µM
25 | N#Cc1c(-c2cccnc2)c2c([nH]c1=S)CCCC2 | > 25 µM (inactive) | > 25 µM
26 | CC1CCN(C(C)C(=O)Nc2ccccc2-c2ccccc2)CC1 (centres undefined) | > 25 µM (inactive) | > 25 µM
27 | O=C(OCc1csc(Nc2ccccc2)n1)c1ccc(Cl)cc1 | 10.1 µM | 17.6 µM
28 | COCC(C)n1c(SCc2ccc(OC)c(F)c2)nc2ccccc2c1=O (centres undefined) | 15.3 µM | > 25 µM
29 | COc1ccc(CCn2nnnc2C(C(C)C)N2CCN(c3ncccn3)CC2)cc1OC (centres undefined) | > 25 µM (inactive) | > 25 µM
30 | Cc1ccccc1C(=O)Oc1ccc(Sc2ccc(O)cc2)cc1 | 8.72 µM | > 25 µM
31 | CN1CC(=O)Nc2ccc(F)cc2C1=O | > 25 µM (inactive) | > 25 µM
32 | N#CC1=C(N)NC(SCC(=O)c2ccc(Br)cc2)=C(C#N)C12CCCCC2 | 19.4 µM | > 25 µM
33 | CCCCCC(O)c1cccc(OCc2ccc3ccccc3n2)c1 (centres undefined) | 14.9 µM | > 25 µM
34 | Cc1nnc(SCC(=O)N2c3ccccc3C(C)(c3ccc(Cl)cc3)CC2(C)C)s1 (centres undefined) | 5.21 µM | > 25 µM
35 | O=C(COC(=O)c1ccc([N+](=O)[O-])s1)Nc1ccccc1 | 17.7 µM | > 25 µM
36 | CCOc1c(OC(C)=O)ccc(/C=C/c2ccc3cccc(OC(C)=O)c3n2)c1[N+](=O)[O-] | > 25 µM (inactive) | > 25 µM
37 | COC(=O)c1cn(N(C)c2ncc(C(F)(F)F)cc2Cl)c(=O)c2ccccc12 | 15.8 µM (inactive) | 15.5 µM
38 | COc1ccccc1N1CCN(C(=O)c2oc3cc(C)cc(C)c3c2C)CC1 | 23.9 µM | > 25 µM
39 | O=C(/C(=N\O)n1cncn1)c1ccc(Br)cc1Br | > 25 µM (inactive) | > 25 µM
40 | Cc1cc(N2C(=O)C=CC2=O)c([N+](=O)[O-])cc1C | > 25 µM (inactive) | > 25 µM
41 | O=C(c1ccco1)N1CCN(C(=O)C2c3ccccc3Oc3ccccc32)CC1 | > 25 µM (inactive) | > 25 µM
42 | COc1cc2[nH]c(=O)n(CCC(=O)N3CCN(c4cccc(C)c4C)CC3)c(=O)c2cc1OC | > 25 µM (inactive) | > 25 µM

Row | Structure (SMILES) | IC50 (WT cells) | IC50 [1]
43 | COc1cccc(NC(=S)N(CCc2c(C)[nH]c3ccccc23)Cc2ccco2)c1 | 15.6 µM (inactive) | > 12.5 µM
44 | OC1(c2cccc(C(F)(F)F)c2)CCN(c2ncnc3c2[nH]c2ccccc23)CC1 | 18 µM | > 25 µM
45 | Cc1cccc2nc(-c3ccccc3)nc(N3CCC(O)(c4ccc(Cl)cc4)CC3)c12 | 4.04 µM | > 25 µM
46 | CCOc1cccc(-c2nn(-c3ccccc3)cc2/C=C(/C#N)C(=O)NCCCn2ccnc2)c1 | > 25 µM (inactive) | > 25 µM
47 | COc1ccc(Cc2nc3ccc(S(=O)(=O)N4CCOCC4)cc3[nH]2)cc1 | > 25 µM (inactive) | > 25 µM
48 | COc1ccc(-n2ncc3c(NCc4ccco4)ncnc32)cc1 | > 25 µM (inactive) | > 25 µM
49 | O=c1oc(Nc2cccc(F)c2)nc2ccccc12 | > 25 µM (inactive) | > 25 µM
50 | CCn1cc(C(=O)OCC(=O)c2cc(C)n(-c3cccc(C(F)(F)F)c3)c2C)c(=O)c2ccc(C)nc21 | 11.1 µM | > 25 µM
51 | CC1=CC(C)(C)N(S(=O)(=O)c2ccc(C)cc2)c2cc(C)ccc21 | 11.1 µM | > 25 µM
52 | CCOC(=O)N1CCN(S(=O)(=O)c2ccc(C)c(C)c2)CC1 | > 25 µM (inactive) | > 25 µM
53 | O=C(N/N=C/c1cccc(F)c1)c1cc(-c2ccco2)nc2ccccc12 | > 25 µM (inactive) | > 25 µM
54 | O=C(c1cc(-c2ccc(Cl)cc2)n(-c2ccc(Cl)c(Cl)c2)n1)N1CCOCC1 | 16.9 µM | > 25 µM
55 | CCC(CC)C(=O)c1c[nH]c(C(=O)NCCCN2CCOCC2)c1 | > 25 µM (inactive) | > 25 µM
56 | COc1ccc(/C=C/c2nc3cc(-c4ccccc4)ccc3o2)cc1O | 11.6 µM | > 25 µM
57 | c1ccc(N(c2ccccc2)c2nc(N3CCCC3)nc(-n3ccnc3)n2)cc1 | 15.5 µM | > 25 µM
58 | CCOC(=O)c1c(NC(=O)C(C)N2CCN(C(=O)c3ccco3)CC2)sc2c1CCCC2 (centres undefined) | 10.9 µM | > 25 µM
59 | Cc1cc(-c2ccccc2)nc2cc(C(=O)N(Cc3ccccc3)Cc3ccccc3)nn12 | 8.35 µM | > 25 µM
60 | O=C1/C(=C/c2cccc3ccccc23)CCCc2ccccc21 | 17.3 µM | > 25 µM
61 | Cc1cc(C)c2nc(C(F)(F)F)nc(N3CC(C)OC(C)C3)c2c1 (centres undefined) | > 25 µM (inactive) | > 25 µM
62 | COc1ccc(NC(=O)Nc2cccc([N+](=O)[O-])c2)cc1Cl | > 25 µM (inactive) | > 25 µM
63 | Cc1cc(NC(=O)C2CCCCC2)nc2c1c(=O)oc1ccccc12 | 19.4 µM | 23.8 µM

Row | Structure (SMILES) | IC50 (WT cells) | IC50 [1]
64 | O=C(Oc1cccnc1)c1ccc(Cl)c(Cl)c1 | > 25 µM (inactive) | > 25 µM
65 | COc1ccc(C2CC(c3ccc(Br)cc3)=NN2C(=O)c2cccnc2)cc1 (centres undefined) | 18.2 µM | > 25 µM
66 | COc1ccc(C(C)(C)C)cc1NC(=O)Nc1ccc2c(c1)OCO2 | 9.81 µM | 23.3 µM
67 | CCn1cc(C(=O)N2CCc3ccccc32)c(=O)c2cc(S(=O)(=O)N(C)C3CCCCC3)ccc21 | > 25 µM (inactive) | > 25 µM
68 | Cc1cccc2sc(NC(=O)c3ccc(NS(=O)(=O)c4cccs4)cc3)nc12 | > 25 µM (inactive) | > 25 µM
69 | CCCCc1ccc(NC(=S)Nc2ccc(Cl)c(S(=O)(=O)N(C)C)c2)cc1 | 9.48 µM | > 25 µM
70 | COc1cc(OC)cc(C(=O)N2CCC(n3c(C)nc4cc(F)ccc43)CC2)c1 | > 25 µM (inactive) | > 25 µM
71 | c1csc(C(c2nnnn2C2CCCC2)N2CCCC3(CCCCC3)C2)c1 (centres undefined) | 4.94 µM | > 25 µM
72 | COc1ccc(S(=O)(=O)N2CCC[C@H]2C(=O)NC2=NCCS2)cc1 | > 25 µM (inactive) | > 25 µM
73 | Cc1cc(=O)oc(C)c1C(=O)Nc1ccc2nsnc2c1 | > 25 µM (inactive) | > 25 µM
74 | CCOC(=O)c1c(N)sc(C(O)(C(F)(F)F)C(F)(F)F)c1-c1ccccc1 | 20.3 µM | > 25 µM
75 | CCOc1ccccc1N1CCN(C(=S)NC(=O)C23CC4CC(CC(C4)C2)C3)CC1 | 19.5 µM | 22.5 µM
76 | CCN(Cc1ccccc1)c1ccc(/C=N/NC(=S)NC(C)C)cc1 | 5.04 µM | > 25 µM
77 | CC1CN(C(=O)N(C)C)CCN1C(=O)N(C)C (centres undefined) | > 25 µM (inactive) | > 25 µM
78 | COc1ccc(Br)cc1CN(C)CC(=O)Nc1ccccc1Cl | 19.8 µM | > 25 µM
79 | COCCNC(=S)N(CCc1c(C)[nH]c2ccc(Cl)cc12)Cc1cccs1 | 8.8 µM | > 25 µM
80 | O=C(OC(C(=O)Nc1cccc(C(F)(F)F)c1)c1ccccc1)C1CCCCC1 (centres undefined) | 9.59 µM | > 25 µM
81 | COc1ccccc1CN=Cc1[nH]c2ccc(Br)c(Cl)c2c1O | > 25 µM (inactive) | > 25 µM
82 | Cc1ccc(SC(C)C(=O)Nc2ccccc2-c2ccccc2)cc1 (centres undefined) | 19.8 µM | > 25 µM

Source: PubChem BioAssay AID1361 (SRMLSC, 2008)
